Data: patent US20060034848A1, “Methods and compositions for treating Alzheimer's disease” (priority 2003, published 2006)
“Also recorded” adds a separate entry of the source.

Test system: LRP-CTF
Assay: LRP C-terminal fragment (CTF) western after DAPT treatment
Assay type: cell-based, mouse
Conditions: N2a cells cotransfected with LC-myc and empty vector, BACE or catalytically inactive BACE; DAPT treatment for 12 h vs vehicle
Description: FIG. 11 depicts a LRP CTF western. […] Shown is the intensity of a representative blot out four experiments without DAPT treatment and two with DAPT treatment.
The proteins were transferred to immobilon-P membrane (Millipore, Bedford, Mass.). Staining was performed according to Licor odyssey instructions and LRP light chain was detected by rabbit anti-myc Ab with 680 gt anti rabbit secondary and visualized on the Licor odyssey.
After cotransfection of LRP with BACE we saw an increase of LRP-CTF as well as in non-treated cells and even more after DAPT treatment.

## C[C@H](NC(=O)Cc1cc(F)cc(F)c1)C(=O)N[C@H](C(=O)OC(C)(C)C)c1ccccc1 [DAPT]
  LRP-CTF 25 kDa band intensity (western blot): increase of the LRP-CTF 25 kDa band; also recorded: increase of CTF intensity
